In general, Ki refers to a dissociation constant, usually derived from enzyme kinetics or from competition with a known ligand. A low value points to a stronger hold on the target.

Non-standard residues stand in square brackets, D forms with d. Residues, ends and D or L forms follow the SMILES beside them. ξ: configuration not given here. *: point of attachment. Tos = Cc1ccc(S(=O)(=O)*)cc1; ξF = NC(Cc1ccccc1)C(=O)O; Pip = O=C(O)[CH]1CCCCN1; Aze = O=C(O)[CH]1CCN1

The target of experiment [1] is T1, Calpain small subunit 1 (Sus scrofa, UniProt P04574).
T1 sequence (P04574 whole entry): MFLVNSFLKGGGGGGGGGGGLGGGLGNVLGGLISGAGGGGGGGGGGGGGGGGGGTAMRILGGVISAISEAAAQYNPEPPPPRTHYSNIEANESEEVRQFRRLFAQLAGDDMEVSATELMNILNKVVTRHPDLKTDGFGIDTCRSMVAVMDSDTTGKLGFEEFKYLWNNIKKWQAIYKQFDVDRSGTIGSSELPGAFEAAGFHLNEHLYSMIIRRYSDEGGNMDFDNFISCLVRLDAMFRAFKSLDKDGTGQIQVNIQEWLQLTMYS
Put plainly: Compound tested for inhibition of porcine Calpain 1.

For experiment [2], the target named is T2, Cathepsin B (Homo sapiens, UniProt P07858). Put plainly: Compound tested for inhibition of human liver Cathepsin B.
Experiment [3] in a line: (§1) Selectivity ratio of cathepsin B to calpain I.
The target of experiment [4] is T1, Calpain small subunit 1. Put plainly: Compound tested for inhibition of porcine calpain I.
Experiment [5] deals with T2, Cathepsin B. Put plainly: Compound tested for inhibition of human liver cathepsin B.
The target in experiment [6] is T2, Cathepsin B. Described as §1.

Turning to `Cc1ccc(S(=O)(=O)N2CCC2C(=O)NC(C=O)Cc2ccccc2)cc1` (stereo not drawn) (Tos-[Aze]-Phe-aldehyde; configuration not given here), the inhibition constant Ki was found to be 250 nM in experiment [1] and 2750 nM in experiment [2]. Further, in experiment [3], the Selectivity ratio is 11.

Take `Cc1ccc(S(=O)(=O)N2CCCC2C(=O)NC(C=O)Cc2ccccc2)cc1` (stereo not drawn) (Tos-Pro-Phe-aldehyde; configuration not given here): the Ki in experiment [1] was found to be 80 nM; in experiment [2], 12100 nM. Further, in experiment [3], the Selectivity ratio came to 151.

Compound `Cc1ccc(S(=O)(=O)N2CCSC2C(=O)NC(C=O)Cc2ccccc2)cc1` (stereo not drawn) gave a Ki in experiment [1] of 70 nM.

Consider `Cc1ccc(S(=O)(=O)N2CCCCC2C(=O)NC(C=O)Cc2ccccc2)cc1` (stereo not drawn) (Tos-[Pip]-Phe-aldehyde; configuration not given here), for which the figures for the Ki in experiment [4] and in experiment [5] were 540 nM and 5260 nM, respectively. Moreover, in experiment [6], the Selectivity ratio worked out at 10.

With `Cc1ccc(S(=O)(=O)N[C@@H](CC(C)C)C(=O)NC(C=O)Cc2ccccc2)cc1` (stereo partly drawn) (Tos-Leu-[ξF]-aldehyde), the values for the Ki in experiment [4] and in experiment [5] were 20 nM and 70 nM, respectively. For the same compound, the Selectivity ratio in experiment [6] is 4.

The values above are taken from ChEMBL document CHEMBL1145738, “Peptidyl aldehyde inhibitors of calpain incorporating P2-proline mimetics” (Bioorg Med Chem Lett, 2003).
